In the assay the test system is Lipoprotein Particle Sizes. As to the kind of experiment: Lipoprotein particle sizes, 12-week double-blind placebo-controlled study of >96% E-EPA in statin-treated patients. The class given is in vivo, human. The following applies: 12 weeks; for LDL particle size, % Δ / HDL particle size, % Δ / VLDL particle size, % Δ: median change from baseline; for LDL particle size, End / HDL particle size, End / VLDL particle size, End: median. How it is done:
A multi-center, placebo-controlled, randomized, double-blind, 12-week study was performed to evaluate the efficacy and safety of >96% E-EPA in patients with fasting triglyceride levels ≥200 mg/dl and <500 mg/dl despite statin therapy (the mean of two qualifying entry values needed to be ≥185 mg/dl and at least one of the values needed to be ≥200 mg/dl). The primary objective of the study was to determine the efficacy of >96% E-EPA 2 g daily and 4 g daily, compared to placebo, in lowering fasting TG levels in patients with high risk for cardiovascular disease and with fasting TG levels ≥200 mg/dl and <500 mg/dl, despite treatment to LDL-C goal on statin therapy.
The population for this study was men and women >18 years of age with a body mass index ≤45 kg/m^2 with fasting TG levels greater than or equal to 200 mg/dl and less than 500 mg/dl and on a stable does of statin therapy (with or without ezetimibe). The statin was atorvostatin, rosuvastatin or simvastatin. The dose of statin must have been stable for ≥4 weeks prior to the LDL-C/TG baseline qualifying measurement for randomization. The statin dose was optimized such that the patients are at their LDL-C goal at the LDL-C/TG baseline qualifying measurements. The same statin at the same dose was continued until the study ended.
Approximately 702 patients were randomized at approximately 80 centers in the U.S. The study was a 18- to 20-week, Phase 3, multi-center study consisting of 2 study periods: (1) A 6- to 8-week screening period that included a diet and lifestyle stabilization, a non-statin lipid-altering treatment washout, and an LDL-C and TG qualifying period and (2) A 12-week, double-blind, randomized, placebo-controlled treatment period.
After confirmation of qualifying fasting LDL-C and TG values, eligible patients entered a 12-week, randomized, double-blind treatment period. At Visit 4 (Week 0), patients were randomly assigned to 1 of the following treatment groups: • >96% E-EPA 2 g daily, • >96% E-EPA 4 g daily, or • Placebo.
During the double-blind treatment period, patients were to take 2 capsules (>96% E-EPA or matching placebo) in the morning and 2 capsules in the evening for a total of 4 capsules per day. • Patients in the >96% E-EPA 2 g/day treatment group received 1>96% E-EPA 1 g capsule and 1 matching placebo capsule in the morning and in the evening. • Patients in the >96% E-EPA 4 g/day treatment group received 2>96% E-EPA 1 g capsules in the morning and evening.
The primary efficacy variable for the double-blind treatment period was percent change in TG from baseline to Week 12 endpoint. The secondary efficacy variables for the double-blind treatment period included the following: • Percent changes in total cholesterol (TC), high-density lipoprotein cholesterol (HDL-C), LDL-C, calculated non-HDL-C, and very low-density lipoprotein cholesterol (VLDL-C) from baseline to Week 12 endpoint; • Percent change in very low-density lipoprotein TG from baseline to Week 12; • Percent changes in apolipoprotein A-I (apo A-I), apolipoprotein B (apo B), and apo A-I/apo B ratio from baseline to Week 12; • Percent changes in lipoprotein(a) from baseline to Week 12; • Percent changes in LDL particle number and size, measured by nuclear magnetic resonance, from baseline to Week 12; • Percent change in remnant-like particle cholesterol from baseline to Week 12; • Percent change in oxidized LDL from baseline to Week 12; • Changes in FPG and HbA1c from baseline to Week 12; • Change in insulin resistance, as assessed by the homeostasis model index insulin resistance, from baseline to Week 12; • Percent change in lipoprotein associated phospholipase A2 (Lp-PLA2) from baseline to Week 12; • Change in intracellular adhesion molecule-1 from baseline to Week 12; • Change in interleukin-2 from baseline to Week 12; • Change in plasminogen activator inhibitor-1 from baseline to Week 12. […]

[1] abbreviates: 4 g/day, Hodges-Lehmann median, listed as E-EPA.

Turning to `CC/C=C\C/C=C\C/C=C\C/C=C\C/C=C\CCCC(=O)OCC` [ethyl eicosapentaenoate, all-cis eicosa-5,8,11,14,17-pentaenoic acid ethyl ester], where the note is “2 g/day, Hodges-Lehmann median”, the “HDL particle size, Placebo-Adjusted Median Change from Baseline 2 g/d, %” value is 0.0%; the “LDL particle size, Placebo-Adjusted Median Change from Baseline 2 g/d, %” value is listed as “+0.5%”; the “VLDL particle size, Placebo-Adjusted Median Change from Baseline 2 g/d, %” value was −4.8%. Further, for the setting “2 g/day, n = 221”, the “LDL particle size, % Δ” value is reported as “+0.5%” and the “LDL particle size, End” value worked out at 20.0 nm. In addition, where the note is “2 g/day, n = 222”, the “HDL particle size, % Δ” value stood at 0.0%; the “VLDL particle size, % Δ” value is on record as −5.0%; the “HDL particle size, End” value is on record as 8.6 nm; the “VLDL particle size, End” value turned out to be 53.2 nm. Moreover, under “4 g/day, Hodges-Lehmann median”, the “HDL particle size, Placebo-Adjusted Median Change from Baseline 4 g/d, %” value was “significantly reduced”; the “LDL particle size, Placebo-Adjusted Median Change from Baseline 4 g/d, %” value is “modest but significant increase”; the “VLDL particle size, Placebo-Adjusted Median Change from Baseline 4 g/d, %” value was “significantly reduced”. Under setting [1], the “HDL particle size, Placebo-Adjusted Median Change from Baseline 4 g/d, %” value is given as −1.2%; the “LDL particle size, Placebo-Adjusted Median Change from Baseline 4 g/d, %” value was “+0.5%”; the “VLDL particle size, Placebo-Adjusted Median Change from Baseline 4 g/d, %” value is reported as −7.7%. In addition, for the setting “4 g/day, n = 215”, the “LDL particle size, % Δ” value is reported as “+0.5%” and the “LDL particle size, End” value is recorded as 20.0 nm. Besides, under “4 g/day, n = 216”, the “HDL particle size, % Δ” value was −1.1%; the “VLDL particle size, % Δ” value is listed as −8.1%; the “HDL particle size, End” value came to 8.6 nm; the “VLDL particle size, End” value was determined as 51.2 nm.

The values above are taken from patent US20210069145A1, “COMPOSITIONS AND METHODS FOR REDUCING A FATTY ACID DESATURATION INDEX IN A SUBJECT IN NEED THEREOF” (Amarin Pharmaceuticals Ireland Limited, priority 2013, published 2021).
